Laboratory results reported in patent US8710062B2, “Piperazinedione compounds” (Taipei Medical University, priority 2011, dated 2014).
Structures can show the parent of a compound that is named as a salt.

Test system: not given
Settings: not given

Row | SMILES | melting point
1 | O=c1[nH]/c(=C\c2ccc(OCc3cccnc3)cn2)c(=O)[nH]/c1=C\c1ccccc1 (as salt: sulfonic acid salt) [Compound 3, 3-benzylidene-6-((5-(pyridin-3-ylmethoxy)pyridin-2-yl)methylene)piperazine-2,5-dione methanesulfonic acid salt] | 228 to 230 °C
2 | O=c1[nH]/c(=C\c2ccc(OCc3ccccn3)cn2)c(=O)[nH]/c1=C\c1ccccc1 (as salt: sulfonic acid salt) [Compound 4, 3-benzylidene-6-((5-(pyridin-2-ylmethoxy)pyridin-2-yl)methylene)piperazine-2,5-dione methanesulfonic acid salt] | 266 to 267 °C
3 | NC(C(=O)Oc1ccc(/C=c2\[nH]c(=O)/c(=C/c3ccccc3)[nH]c2=O)nc1)c1ccccc1 (stereo not shown) (as salt: trifluoroacetate) [Compound 9, 2-(6-((Z)—((Z)-5-benzylidene-3,6-dioxopiperazin-2-ylidene)methyl)py-ridin-3-yloxy)-2-oxo-1-phenylethanaminium 2,2,2-trifluoroacetate] | 280 °C
4 | NC(Cc1ccccc1)C(=O)Oc1ccc(/C=c2\[nH]c(=O)/c(=C/c3ccccc3)[nH]c2=O)nc1 (stereo not shown) (as salt: trifluoroacetate) [Compound 11, 1-(6-((Z)—((Z)-5-benzylidene-3,6-dioxopiperazin-2-ylidene)methyl)-pyridin-3-yloxy)-1-oxo-3-phenylpropan-2-aminium 2,2,2-trifluoroacetate] | 285 to 286 °C
5 | NC(Cc1ccc(O)cc1)C(=O)Oc1ccc(/C=c2\[nH]c(=O)/c(=C/c3ccccc3)[nH]c2=O)nc1 (stereo not shown) (as salt: trifluoroacetate) [Compound 12, 1-(6-((Z)—((Z)-5-benzylidene-3,6-dioxopiperazin-2-ylidene)methyl)pyridin-3-yloxy)-3-(4-hydroxyphenyl)-1-oxopropan-2-aminium 2,2,2-trifluoroacetate] | 312 to 314 °C
6 | CN1CCN(C(=O)Oc2ccc(/C=c3\[nH]c(=O)/c(=C/c4ccccc4)[nH]c3=O)nc2)CC1 [Compound 6, 6-((Z)—((Z)-5-benzylidene-3,6-dioxopiperazin-2-ylidene)methyl)pyridin-3-yl-4-methylpiperazine-1-carboxylate] | 234 to 235 °C
7 | CC(C)(C)OC(=O)NC(Cc1ccccc1)C(=O)Oc1ccc(/C=c2\[nH]c(=O)/c(=C/c3ccccc3)[nH]c2=O)nc1 (stereo not shown) [Compound 10, 6-((Z)—((Z)-5-benzylidene-3,6-dioxopiperazin-2-ylidene)methyl)pyridin-3-yl 2-(tert-butoxycarbonylamino)-3-phenylpropanoate] | 188 °C
8 | CC(C)(C)OC(=O)NC(Cc1ccc(OC(C)(C)C)cc1)C(=O)Oc1ccc(/C=c2\[nH]c(=O)/c(=C/c3ccccc3)[nH]c2=O)nc1 (stereo not shown) [Compound 13, 6-((Z)—((Z)-5-benzylidene-3,6-dioxopiperazin-2-ylidene)methyl)pyridin-3-yl-2-(tert-butoxycarbonylamino)-3-(4-tert-butoxyphenyl)propanoate] | 210 to 212 °C
9 | O=c1[nH]/c(=C\c2ccc(OCc3ccncc3)cn2)c(=O)n(Cc2ccncc2)/c1=C\c1ccccc1 [Compound 14, (3Z,6Z)-6-benzylidene-3-((5-(pyridin-4-ylmethoxy)pyridin-2-yl)meth-ylene)-1-(pyridin-4-ylmethyl)piperazine-2,5-dione] | 284 °C (dec.)
10 | CN(C)CCCOc1cccc(/C=c2\[nH]c(=O)/c(=C/c3ccc(OCc4ccccc4)cn3)[nH]c2=O)c1 [Compound 17, 3-((5-(benzyloxy)pyridin-2-yl)methylene)-6-(3-(3-(dimethylamino)propoxy)benzylidene)piperazine-2,5-dione] | 286 °C (dec.)
11 | O=c1[nH]/c(=C\c2ccc(OCCO)cn2)c(=O)n(CCO)/c1=C\c1ccccc1 [Compound 18, 6-benzylidene-3-((5-(2-hydroxyethoxy)pyridin-2-yl)methylene)-1-(2-hydroxyethyl)piperazine-2,5-dione] | 326 °C (dec.)
12 | CC(=O)N1CC(=O)N/C(=C\c2ccc3ccccc3n2)C1=O [Compound 19, 1-acetyl-3-(quinolin-2-ylmethylene)piperazine-2,5-dione] | 262 to 263 °C
13 | O=c1[nH]/c(=C\c2ccc3ccccc3n2)c(=O)[nH]/c1=C\c1ccc2ccccc2n1 [Compound 20, 3,6-bis(quinolin-2-ylmethylene)piperazine-2,5-dione] | 374 to 375 °C
14 | O=c1[nH]/c(=C\c2ccc3ccccc3n2)c(=O)[nH]/c1=C\c1cccnc1 [Compound 21, 3-(pyridin-3-ylmethylene)-6-(quinolin-2-ylmethylene)piperazine-2,5-dione] | 305 to 306 °C
15 | O=c1[nH]/c(=C\c2ccc3ccccc3n2)c(=O)[nH]/c1=C\c1ccc(F)cc1 [Compound 22, 3-(4-fluorobenzylidene)-6-(quinolin-2-ylmethylene)piperazine-2,5-dione] | 319 to 320 °C
16 | O=c1[nH]/c(=C\c2ccc3ccccc3n2)c(=O)[nH]/c1=C\c1ccc(Cl)cc1 [Compound 23, 3-(4-chlorobenzylidene)-6-(quinolin-2-ylmethylene)piperazine-2,5-dione] | 348 to 349 °C
17 | O=c1[nH]/c(=C\c2cccs2)c(=O)[nH]/c1=C\c1ccc2ccccc2n1 [Compound 24, 3-(quinolin-2-ylmethylene)-6-(thiophen-2-ylmethylene)piperazine-2,5-dione] | 288 to 289 °C
18 | O=c1[nH]/c(=C\c2ccnc3ccccc23)c(=O)[nH]/c1=C\c1ccnc2ccccc12 [Compound 26, 3,6-bis(quinolin-4-ylmethylene)piperazine-2,5-dione] | 374 to 375 °C
19 | CC(=O)N1CC(=O)N/C(=C\c2cnc3ccccc3c2)C1=O [Compound 27, 1-acetyl-3-(quinolin-3-ylmethylene)piperazine-2,5-dione] | 261 to 262 °C

Test system: 60 Human Cancer Cell Lines (NCI-60)
Settings: data obtained from the NCI/DTP database (asterisk); cited from earlier work

Row | SMILES | pIC50
20 | Nc1nc2[nH]cc(CCc3ccc(C(=O)N[C@@H](CCC(=O)O)C(=O)O)cc3)c2c(=O)[nH]1 [Alimta] | 4.97
21 | O=c1[nH]cc(F)c(=O)[nH]1 [Compound 5-FU, 5-FU] | 4.76
22 | Nc1ccn([C@@H]2O[C@H](CO)[C@@H](O)C2(F)F)c(=O)n1 [Gemcitabine] | 6.82
23 | COc1cc2ncnc(Nc3ccc(F)c(Cl)c3)c2cc1OCCCN1CCOCC1 [Irressa] | 5.49
24 | CN(Cc1cnc2nc(N)nc(N)c2n1)c1ccc(C(=O)N[C@@H](CCC(=O)O)C(=O)O)cc1 [MTX] | 6.95
25 | CNC(=O)c1cc(Oc2ccc(NC(=O)Nc3ccc(Cl)c(C(F)(F)F)c3)cc2)ccn1 [Mexavar] | 5.73
26 | CCN(CC)CCNC(=O)c1c(C)[nH]c(/C=C2\C(=O)Nc3ccc(F)cc32)c1C [Sutent] | 5.71
27 | C#Cc1cccc(Nc2ncnc3cc(OCCOC)c(OCCOC)cc23)c1 [Tarceva] | 5.26
28 | CC(=O)O[C@@]12CO[C@@H]1C[C@H](O)[C@@]1(C)C(=O)[C@H](O)C3=C(C)[C@@H](OC(=O)[C@H](O)[C@@H](NC(=O)OC(C)(C)C)c4ccccc4)C[C@@](O)([C@@H](OC(=O)c4ccccc4)[C@H]21)C3(C)C [docetxel] | 7.66
29 | O=C1[O][Pt]2([NH][C@@H]3CCCC[C@H]3[NH]2)[O]C1=O [eloxatin] | 5.65
30 | CCc1c2c(nc3ccc(OC(=O)N4CCC(N5CCCCC5)CC4)cc13)-c1cc3c(c(=O)n1C2)COC(=O)[C@]3(O)CC [irinotecan] | 4.85
31 | CC(=O)O[C@H]1C(=O)[C@@]2(C)[C@H]([C@H](OC(=O)c3ccccc3)[C@]3(O)C[C@H](OC(=O)[C@H](O)[C@@H](NC(=O)c4ccccc4)c4ccccc4)C(C)=C1C3(C)C)[C@]1(OC(C)=O)CO[C@@H]1C[C@@H]2O [taxol] | 7.84
